Results as given in patent US20090203585A1, “CAPREOMYCIN DERIVATIVES AND THEIR USE AS ANTIBACTERIALS” (priority 2006, published 2009).

Key:
Clostridium difficile = assay: Activity against Clostridium difficile; assay type: cell-based; conditions: relative to corresponding capreomycin IB phenyl urea analog
[1] = test system: MRSA (Methicillin resistant Staphylococcus aureus, ATCC33591); assay: MIC determination in MRSA; assay type: cell-based
Description: Cation Adjusted Mueller Hinton Broth (Teknova #M5860); MRSA (Methicillin resistant Staphylococcus aureus, ATCC33591). Test compounds: all compounds were dissolved in PBS at 10 mg/mL and stored at −20° C.
The method used for determination of MIC's follows the procedure described by the Clinical Laboratory Standards Institute (CLSI). A standardized inoculum of MRSA was prepared per CLSI methods yielding a final cell concentration of 5×10 (5) CFU/mL. 10× compound dilutions were prepared by performing 2 fold serial dilutions in Cation Adjusted Mueller Hinton Broth. The starting and ending concentrations were 640 μg/mL and 1.25 μg/mL, respectively for final assay concentrations of 64 µg/mL and 0.125 μg/mL. 10 μL of the 10× compound dilutions were added to 90 μL of the MRSA cell suspension in microplate wells. Plates were incubated in a 35° C. incubator for approximately 20 hours.

[2] = test system: other genera of bacteria (Gram-positive, Gram-negative); conditions: cited from earlier work
mycobacteria = conditions: cited from earlier work

Compound | fold more active against Clostridium difficile than the corresponding capreomycin IB phenyl urea analogs (Clostridium difficile) [fold] | activity against MRSA [1] | activity against other genera of bacteria [2] | efficacy against most Gram-positive bacteria (Staphylococcus) or Gram-negative bacteria (Escherichia coli) [2] | activity against mycobacteria (mycobacteria)
C[C@@H]1NC(=O)[C@@H](N)CNC(=O)[C@H](C2CCNC(=N)N2)NC(=O)/C(=C/NC(=O)Nc2cccc(-c3ccccc3)c2)NC(=O)[C@H](CN)NC1=O (some centres unmarked) [Compound 73] | 4 | active | – | – | –
Capreomycin | – | – | little activity | not efficacious | potent activity
